Experimental data: article PMC10848157, “Assessing NH300094, a novel dopamine and serotonin receptor modulator with cognitive enhancement property for treating schizophrenia” (Frontiers in Pharmacology, 2024)

Experiments:
[1] = target: T1, 5-HT7 receptor (Homo sapiens, UniProt P34969); assay: 5-HT7 receptor functional assay (Bright-Glo Luciferase assay system); type: cell-based; details: HEK293/5-HT7 cells, read-out: 5HT7R, IC50
T1 construct: host or cells: HEK293/5-HT7

[2] = in vivo; details: male, ICR, mouse, po
[3] = tested on: male ICR mice; assay: Novel object recognition in scopolamine hydrobromide-treated mice; type: in vivo; details: NOR; NH300094 0.01–0.16 mg/kg p.o.; risperidone 0.04, 0.08, 0.16 mg/kg p.o.; rivastigmine 0.3 and 1 mg/kg i.p.
Protocol: The procedure was modified according to Bevins and Besheer ([Bevins and Besheer, 2006]). […] The tests were conducted in a 50 cm × 35 cm × 20 cm chamber and the mice behavior was recording using a Hikvision video recording system (H.265, Hikvision Digtial Technology Co., Ltd.). All mice were allowed to freely explore the chamber environment for 10 min, and there were no objects placed in the chamber during acclimatization period. […] Rivastigmine hydrogen tartrate group (0.1, 0.3 and 1 mg/kg, i.p.) were dosed simultaneously with scopolamine hydrobromide (3 mg/kg, i.p.). Training was conducted 30 min post scopolamine hydrobromide administration by placing a single mouse into a chamber for 10 min with two exactly same objects positioned in the center of chamber. (The distance between the two objects was more than 20 cm). […]
The experimental video was analyzed to record the time of mice exploring the new and old objects, respectively, and the differentiation index (DI) was calculated as follows: DI = new object exploration time/(new object exploration time + old object exploration time), which was used as the main evaluation index of discrimination ability. […] If the total exploration time of the new and old objects was less than 20 s, the total 10 min of video would be analyzed. […] The movement of circling without sniffing or sitting on the object was not recorded as exploration behavior.

[4] = target: 5-HT2A receptor (Homo sapiens, UniProt P28223); assay: 5-HT2A receptor functional assay (calcium flow, FLIPR, antagonist); type: cell-based
Chain of 5-HT2A receptor (P28223 whole entry): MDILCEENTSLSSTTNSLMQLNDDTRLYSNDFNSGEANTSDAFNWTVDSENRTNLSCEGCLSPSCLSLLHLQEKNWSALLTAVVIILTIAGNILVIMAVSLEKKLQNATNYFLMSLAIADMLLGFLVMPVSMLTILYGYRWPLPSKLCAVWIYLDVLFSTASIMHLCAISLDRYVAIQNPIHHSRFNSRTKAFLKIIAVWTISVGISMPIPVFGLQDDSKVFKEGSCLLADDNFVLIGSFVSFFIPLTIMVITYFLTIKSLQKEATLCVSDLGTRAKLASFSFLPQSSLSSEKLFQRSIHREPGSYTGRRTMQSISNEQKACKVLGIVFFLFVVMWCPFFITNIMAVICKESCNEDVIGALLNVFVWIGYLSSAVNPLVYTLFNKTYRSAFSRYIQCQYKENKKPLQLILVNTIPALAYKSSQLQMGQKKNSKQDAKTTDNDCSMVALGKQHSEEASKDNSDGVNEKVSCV

[5] = target: T2, 5-HT1A receptor (Homo sapiens, UniProt P08908); assay: 5-HT1A receptor functional assay (cAMP assay, antagonist); type: cell-based; details: antagonist activity, CHO-K1/5-HT1A cells, read-out: 5HT1AR, IC50
T2 sequence (P08908 1-422): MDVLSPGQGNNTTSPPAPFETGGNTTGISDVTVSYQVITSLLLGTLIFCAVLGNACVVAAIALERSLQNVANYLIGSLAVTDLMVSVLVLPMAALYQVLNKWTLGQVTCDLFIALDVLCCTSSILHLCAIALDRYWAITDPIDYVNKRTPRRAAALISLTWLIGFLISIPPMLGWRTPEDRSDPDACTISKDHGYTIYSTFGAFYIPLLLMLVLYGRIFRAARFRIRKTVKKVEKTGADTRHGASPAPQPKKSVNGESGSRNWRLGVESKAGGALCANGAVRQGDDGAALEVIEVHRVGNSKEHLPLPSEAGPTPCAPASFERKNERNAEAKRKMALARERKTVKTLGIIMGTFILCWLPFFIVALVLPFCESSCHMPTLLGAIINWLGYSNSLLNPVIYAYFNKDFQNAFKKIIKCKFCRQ

[6] = target: D2L receptor (Homo sapiens, UniProt P14416); assay: D2L receptor functional assay (cAMP assay, antagonist); type: cell-based; details: antagonist activity, CHO-K1/D2 cells, read-out: D2LR, IC50
Chain of D2L receptor (P14416 whole entry): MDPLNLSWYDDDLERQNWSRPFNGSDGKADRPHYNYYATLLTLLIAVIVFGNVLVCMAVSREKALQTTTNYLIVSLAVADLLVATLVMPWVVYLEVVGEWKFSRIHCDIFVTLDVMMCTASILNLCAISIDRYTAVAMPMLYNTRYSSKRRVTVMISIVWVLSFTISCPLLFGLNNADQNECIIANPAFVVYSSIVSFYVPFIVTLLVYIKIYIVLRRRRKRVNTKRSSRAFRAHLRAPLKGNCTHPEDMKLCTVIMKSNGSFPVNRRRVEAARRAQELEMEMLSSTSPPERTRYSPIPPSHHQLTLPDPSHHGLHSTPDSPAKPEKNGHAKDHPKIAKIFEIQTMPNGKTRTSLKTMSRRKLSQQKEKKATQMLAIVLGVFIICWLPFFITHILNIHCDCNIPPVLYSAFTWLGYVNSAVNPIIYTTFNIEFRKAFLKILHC

[7] = target: D2S receptor (Homo sapiens, UniProt P14416); assay: D2S receptor functional assay (cAMP assay, antagonist); type: cell-based; details: antagonist activity, CHO-K1/D2 cells, read-out: D2SR, IC50
Chain of D2S receptor (P14416 1-414 isoform P14416-2): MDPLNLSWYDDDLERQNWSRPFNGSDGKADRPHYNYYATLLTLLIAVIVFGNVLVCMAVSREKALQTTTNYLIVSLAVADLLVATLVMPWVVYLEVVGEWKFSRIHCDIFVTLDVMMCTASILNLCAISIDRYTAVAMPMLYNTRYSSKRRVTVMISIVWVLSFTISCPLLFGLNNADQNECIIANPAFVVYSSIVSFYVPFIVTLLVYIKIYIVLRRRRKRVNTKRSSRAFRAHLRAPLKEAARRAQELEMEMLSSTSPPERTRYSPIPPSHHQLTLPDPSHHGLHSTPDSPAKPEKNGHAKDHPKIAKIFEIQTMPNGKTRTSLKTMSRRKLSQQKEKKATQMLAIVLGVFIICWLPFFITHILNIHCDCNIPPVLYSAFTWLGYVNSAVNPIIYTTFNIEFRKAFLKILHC

[8] = target: T3, Alpha2A receptor (Homo sapiens, UniProt P08913); assay: Alpha2A receptor functional assay (cAMP assay); type: cell-based; details: HEK293/Alpha2A cells, read-out: Alpha2AR, IC50
T3 construct: expressed in transfected cells; host or cells: HEK293/Alpha2A (constructed by Shanghai shujing Biopharma)
T3 sequence (P08913 1-465): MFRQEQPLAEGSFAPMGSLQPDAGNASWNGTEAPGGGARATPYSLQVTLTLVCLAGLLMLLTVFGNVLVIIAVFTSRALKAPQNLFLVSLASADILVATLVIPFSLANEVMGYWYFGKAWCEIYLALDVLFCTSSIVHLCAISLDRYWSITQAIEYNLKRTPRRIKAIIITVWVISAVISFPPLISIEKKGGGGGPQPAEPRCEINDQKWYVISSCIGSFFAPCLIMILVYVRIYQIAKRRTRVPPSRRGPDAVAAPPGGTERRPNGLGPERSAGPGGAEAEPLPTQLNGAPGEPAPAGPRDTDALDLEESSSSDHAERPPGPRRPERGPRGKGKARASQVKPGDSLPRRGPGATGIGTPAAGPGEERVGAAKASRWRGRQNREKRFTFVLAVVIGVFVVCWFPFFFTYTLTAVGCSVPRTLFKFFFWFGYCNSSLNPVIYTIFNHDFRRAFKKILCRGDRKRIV

[9] = target: T4, 5-HT2C receptor (Homo sapiens, UniProt P28335); assay: 5-HT2C receptor functional assay (calcium flow, FLIPR); type: cell-based; details: HEK293/5-HT2C cells, read-out: 5HT2cR, IC50
T4 sequence (P28335 33-458): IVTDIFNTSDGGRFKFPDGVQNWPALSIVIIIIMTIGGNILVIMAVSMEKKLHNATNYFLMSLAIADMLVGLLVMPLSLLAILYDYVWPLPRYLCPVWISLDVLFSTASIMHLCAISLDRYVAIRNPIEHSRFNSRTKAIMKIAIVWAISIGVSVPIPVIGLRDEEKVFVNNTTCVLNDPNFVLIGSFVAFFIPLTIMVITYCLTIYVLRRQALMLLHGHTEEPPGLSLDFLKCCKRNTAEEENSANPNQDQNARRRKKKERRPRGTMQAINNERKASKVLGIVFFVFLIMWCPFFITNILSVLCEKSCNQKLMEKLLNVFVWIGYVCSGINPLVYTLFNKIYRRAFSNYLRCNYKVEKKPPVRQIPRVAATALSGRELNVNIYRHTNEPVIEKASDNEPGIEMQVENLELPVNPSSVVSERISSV

T1 sequence (P34969 whole entry): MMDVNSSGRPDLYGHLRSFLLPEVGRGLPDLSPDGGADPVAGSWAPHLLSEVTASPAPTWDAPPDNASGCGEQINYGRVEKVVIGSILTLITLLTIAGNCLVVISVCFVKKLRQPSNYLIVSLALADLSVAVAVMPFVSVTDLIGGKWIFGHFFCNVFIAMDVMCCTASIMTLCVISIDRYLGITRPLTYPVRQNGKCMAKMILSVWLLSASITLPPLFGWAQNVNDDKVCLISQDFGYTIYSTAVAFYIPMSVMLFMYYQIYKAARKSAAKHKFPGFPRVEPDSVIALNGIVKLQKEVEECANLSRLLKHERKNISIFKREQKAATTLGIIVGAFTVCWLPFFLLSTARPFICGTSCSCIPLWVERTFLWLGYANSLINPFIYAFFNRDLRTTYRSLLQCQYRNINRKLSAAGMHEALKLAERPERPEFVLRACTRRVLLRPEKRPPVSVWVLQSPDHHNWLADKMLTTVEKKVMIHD

With `O=C1CCc2cc(OCCCN3CCC(c4noc5cc(F)ccc45)CC3)cc3c2N1CC3` [NH300094, 8-(3-(4-(6-fluorobenzo [d]isoxazol-3-yl)piperidin-1-yl)propoxy)-1,2,5,6-tetrahydro-4H-pyrrolo [3,2,1-ij] quinolin-4-one] the IC50 [1] was 5520 nM, the ED50 [2] was 6.73 mg/kg and the “effect on differentiation index (DI) of scopolamine hydrobromide-treated mice” value [3] was “increased DI index”. For the same compound, the “antagonistic activities ratio of 5-HT2AR and D2R (IC50 ratio)” value ([4]; IC50 5-HT2AR / IC50 D2R) was 0.45, the IC50 ([4]; antagonist activity, calcium flow FLIPR, CHO-K1/5-HT2A cells, read-out: 5HT2AR, IC50) was 0.47 ± 0.79 nM and the IC50 [5] was 85.6 ± 61.5 nM. It also gave an IC50 [6] of 1.04 ± 0.59 nM, an IC50 [7] of 11.7 ± 9.38 nM and an IC50 [8] of 314 nM. For the same compound, the IC50 [9] was 3020 nM.
